From patent publication US8318749B2, “Quinazoline derivatives as NK3 receptor antagonists” (Hoffmann-La Roche Inc., priority 2008, dated 2012)
pKi: −log10 of the molar value.

Target: T1, recombinant human NK3 receptor (Homo sapiens, UniProt P29371)
T1 construct: expressed in transfected cells; host or cells: HEK293 cells (transient expression), membrane preparation
T1 sequence (P29371 1-465): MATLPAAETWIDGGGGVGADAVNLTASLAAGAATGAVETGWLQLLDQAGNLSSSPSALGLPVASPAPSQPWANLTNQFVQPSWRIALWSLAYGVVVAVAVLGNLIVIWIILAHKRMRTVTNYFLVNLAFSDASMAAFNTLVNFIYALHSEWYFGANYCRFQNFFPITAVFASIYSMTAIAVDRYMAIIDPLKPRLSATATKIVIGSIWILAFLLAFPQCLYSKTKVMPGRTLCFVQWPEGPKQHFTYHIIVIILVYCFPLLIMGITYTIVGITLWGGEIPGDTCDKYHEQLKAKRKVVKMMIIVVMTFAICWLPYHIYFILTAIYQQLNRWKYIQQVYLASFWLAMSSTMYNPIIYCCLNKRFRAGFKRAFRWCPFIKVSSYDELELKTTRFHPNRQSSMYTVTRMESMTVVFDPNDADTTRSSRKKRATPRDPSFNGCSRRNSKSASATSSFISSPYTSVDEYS
Experiment: [3H]SR142801 competition binding assay
Conditions: membrane from HEK293 cells transiently expressing recombinant human NK3 receptor; radioligand [3H]SR142801; 75 min at RT
Method: [^3H]SR142801 Competition Binding Assay
hNK3 receptor binding experiment were performed using [^3H]SR142801 (Catalog No. TRK1035, specific activity: 74.0 Ci/mmol, Amersham, GE Healthcare UK limited, Buckinghamshire, UK) and membrane isolated from HEK293 cells transiently expressing recombinant human NK3 receptor. After thawing, the membrane homogenates were centrifuged at 48,000×g for 10 min at 4° C., the pellets were resuspended in the 50 mM Tris-HCl, 4 mM MnCl2, 1 μM phosphoramidon, 0.1% BSA binding buffer at pH 7.4 to a final assay concentration of 5 μg protein/well. […] At the end of the incubation, membranes were filtered onto unitfilter (96-well white microplate with bonded GF/C filter preincubated 1 h in 0.3% PEI+0.3% BSA, Packard BioScience, Meriden, Conn.) with a Filtermate 196 harvester (Packard BioScience) and washed 4 times with ice-cold 50 mM Tris-HCl, pH 7.4 buffer. Nonspecific binding was measured in the presence of 10 μM SB222200 for both radioligands. The radioactivity on the filter was counted (5 min) on a Packard Top-count microplate scintillation counter with quenching correction after addition of 45 μl of microscint 40 (Canberra Packard S.A., Zürich, Switzerland) and shaking for 1 h. Inhibition curves were fitted according to the Hill equation: y=100/(1+(x/IC50)^nH), where nH=slope factor using Excel-fit 4 software (Microsoft). IC50 values were derived from the inhibition curve and the affinity constant (Ki) values were calculated using the Cheng-Prussoff equation Ki=IC50/(1+[L]/KD) where [L] is the concentration of radioligand and KD is its dissociation constant at the receptor, derived from the saturation isotherm. All experiments were performed in duplicate and the mean±standard error (SEM) of the individual Ki values was calculated.

pKi | Structure (SMILES)
8.29 | COc1ccc2c(O)nc(N3CCC(Cc4ccccc4)(C(=O)NCc4ccccc4)CC3)nc2c1 [Example 95, 4-Benzyl-1-(4-hydroxy-7-methoxy-quinazolin-2-yl)-piperidine-4-carboxylic acid benzylamide]
7.19 | COc1cc2nc(N3CCC(CC(C)C)(C(=O)NCc4ccccc4)CC3)nc(N)c2cc1OC [Example 70, 1-(4-Amino-6,7-dimethoxy-quinazolin-2-yl)-4-isobutyl-piperidine-4-carboyxlic acid benzylamide]
7.20 | COc1cc2nc(N3CCC(Cc4ccccc4)(C(=O)N(C)C4Cc5ccccc5C4)CC3)nc(O)c2cc1OC [Example 57, 4-Benzyl-1-(4-hydroxy-6,7-dimethoxy-quinazolin-2-yl)-piperidine-4-carboxylic acid indan-2-yl-methyl-amide]
7.76 | COc1cc2nc(N3CCC(Cc4ccccc4)(C(=O)NCc4ccc(N(C)C)cc4)CC3)nc(N)c2cc1OC [Example 33, 1-(4-Amino-6,7-dimethoxy-quinazolin-2-yl)-4-benzyl-piperidine-4-carboxylic acid 4-dimethylamino-benzylamide]
8.27 | COc1cc2nc(N3CCC(Cc4ccccc4)(C(=O)NCc4ccccc4)CC3)nc(O)c2cc1OC(C)C [Example 91, 4-Benzyl-1-(4-hydroxy-6-isopropoxy-7-methoxy-quinazolin-2-yl)-piperidine-4-carboxylic acid benzylamide]
7.46 | O=C(NCc1ccccc1)C1(Cc2ccccc2)CCN(c2nc(O)c3cc(F)c(Cl)cc3n2)CC1 [Example 16, 4-Benzyl-1-(7-chloro-6-fluoro-4-hydroxy-quinazolin-2-yl)-piperidine-4-carboxylic acid benzylamide]
7.67 | COc1cc2c(O)nc(N3CCC(Cc4ccccc4)(C(=O)NCc4ccccc4)CC3)nc2cc1OC(C)C [Example 92, 4-Benyzl-1-(4-hydroxy-7-isopropoxy-6-methoxy-quinazolin-2-yl)-piperidine-4-carboxylic acid benzylamide]
7.29 | COc1cc2nc(N3CCC(Cc4ccccc4)(C(=O)NC4Cc5cc(Cl)ccc5C4O)CC3)nc(O)c2cc1OC (stereo not drawn) [Example 65, 4-Benzyl-1-(4-hydroxy-6,7-dimethoxy-quinazolin-2-yl)-piperidine-4-carboxylic acid (5-chloro-1-hydroxy-indan-2-yl)-amide]
7.16 | COc1cc2nc(N3CCC(Cc4ccccc4)(C(=O)NCc4ccccc4)CC3)nc(NC3CC3)c2cc1OC [Example 15, 4-Benzyl-1-(4-cyclopropylamino-6,7-dimethoxy-quinazolin-2-yl)-piperidine-4-carboxylic acid benzylamide]
8.42 | COc1cc2nc(N3CCC(Cc4ccccc4)(C(=O)NC4CCc5ccccc5C4)CC3)nc(O)c2cc1OC (stereo not drawn) [Example 58, 4-Benzyl-1-(4-hydroxy-6,7-dimethoxy-quinazolin-2-yl)-piperidine-4-carboxylic acid (1,2,3,4-tetrahydro-naphthalen-2-yl)-amide]
7.28 | COc1cc2nc(N3CCC(Cc4ccccc4)(C(=O)NCc4ccc(Cl)c(Cl)c4)CC3)nc(N)c2cc1OC [Example 28, 1-(4-Amino-6,7-dimethoxy-quinazolin-2-yl)-4-benzyl-piperidine-4-carboxylic acid 3,4-dichloro-benzylamide]
7.78 | CC[C@@H](NC(=O)C1(Cc2ccccc2)CCN(c2nc(N)c3cc(OC)c(OC)cc3n2)CC1)c1ccccc1 [Example 51, 1-(4-Amino-6,7-dimethoxy-quinazolin-2-yl)-4-benyzl-piperidine-4-carboxylic acid ((R)-1-phenyl-propyl)-amide]
8.04 | COc1cc2nc(N3CCC(Cc4ccccc4)(C(=O)NCc4ccccc4)CC3)nc(O)c2cc1Cl [Example 93, 4-Benzyl-1-(6-chloro-4-hydroxy-7-methoxy-quinazolin-2-yl)-piperidine-4-carboxylic acid benzylamide]
8.00 | COc1cc2nc(N3CCC(Cc4ccccc4)(C(=O)NC4CCc5ccccc5C4)CC3)nc(N)c2cc1OC (stereo not drawn) [Example 40, 1-(4-Amino-6,7-dimethoxy-quinazolin-2-yl)-4-benzyl-piperidine-4-carboxylic acid (1,2,3,4-tetrahydro-naphthalen-2-yl)-amide]
7.04 | COc1cc2nc(N3CCC(Cc4ccccc4)(C(=O)NCc4cccnc4)CC3)nc(N)c2cc1OC [Example 1, 1-(4-Amino-6,7-dimethoxy-quinazolin-2-yl)-4-benzyl-piperidine-4-carboxylic acid (pyridin-3-ylmethyl)-amide]

Second part, the compound before the results:

Structure (SMILES) | pKi
COc1cc2nc(N3CCC(CC4CC4)(C(=O)NCc4ccccc4)CC3)nc(O)c2cc1OC [Example 72, 4-Cyclopropylmethyl-1-(4-hydroxy-6,7-dimethoxy-quinazolin-2-yl)-piperidine-4-carboxylic acid benzylamide] | 7.42
COc1cc2nc(N3CCC(Cc4ccccc4)(C(=O)NCc4ccc(OC(F)F)cc4)CC3)nc(N)c2cc1OC [Example 20, 1-(4-Amino-6,7-dimethoxy-quinazolin-2-yl)-4-benzyl-piperidine-4-carboxylic acid 4-difluoromethoxy-benzylamide] | 7.33
COc1cc2nc(N3CCC(Cc4ccccc4)(C(=O)N(C)Cc4ccccc4)CC3)nc(O)c2cc1OC [Example 54, 4-Benzyl-1-(4-hydroxy-6,7-dimethoxy-quinazolin-2-yl)-piperidine-4-carboxylic acid benzyl-methyl-amide] | 8.32
COc1cc2nc(N3CCC(Cc4ccccc4)(C(=O)NC4CCCC4)CC3)nc(O)c2cc1OC [Example 53, 4-Benzyl-1-(4-hydroxy-6,7-dimethoxy-quinazolin-2-yl)-piperidine-4-carboxylic acid cyclopentylamide] | 7.60
O=C(NCc1ccccc1)C1(Cc2ccccc2)CCN(c2nc(O)c3ccc(OC(F)(F)F)cc3n2)CC1 [Example 99, 4-Benzyl-1-(4-hydroxy-7-trifluoromethoxy-quinazolin-2-yl)-piperidine-4-carboxylic acid benzylamide] | 8.31
COc1cc2nc(N3CCC(Cc4ccccc4)(C(=O)NCC4CCC4)CC3)nc(O)c2cc1OC [Example 67, 4-Benzyl-1-(4-hydroxy-6,7-dimethoxy-quinazolin-2-yl)-piperidine-4-carboxylic acid cyclobutylmethyl-amide] | 7.32
COc1cc2nc(N3CCC(Cc4ccccc4)(C(=O)NC4Cc5ccccc5C4O)CC3)nc(N)c2cc1OC (stereo not drawn) [Example 38, 1-(4-Amino-6,7-dimethoxy-quinazolin-2-yl)-4-benzyl-piperidine-4-carboxylic acid (1-hydroxy-indan-2-yl)-amide] | 8.12
COc1cc2nc(N3CCC(CC4CCC4)(C(=O)NC4CCCC4)CC3)nc(O)c2cc1OC [Example 78, 4-Cyclobutylmethyl-1-(4-hydroxy-6,7-dimethoxy-quinazolin-2-yl)-piperidine-4-carboxylic acid cyclopentylamide] | 7.18
COc1cc2nc(N3CCC(CC4CCC4)(C(=O)NC4Cc5ccccc5C4)CC3)nc(O)c2cc1OC [Example 79, 4-Cyclobutylmethyl-1-(4-hydroxy-6,7-dimethoxy-quinazolin-2-yl)-piperidine-4-carboxylic acid indan-2-ylamide] | 7.08
COc1cc2nc(N3CCC(Cc4ccccc4)(C(=O)NC4CCc5ccccc5C4O)CC3)nc(O)c2cc1OC (stereo not drawn) [Example 68, 4-Benzyl-1-(4-hydroxy-6,7-dimethoxy-quinazolin-2-yl)-piperidine-4-carboxylic acid (1-hydroxy-1,2,3,4-tetrahydro-naphthalen-2-yl)-amide] | 7.08
COc1cc2nc(N3CCC(Cc4ccccc4)(C(=O)N[C@H](C)c4ccccc4)CC3)nc(N)c2cc1OC [Example 49, 1-(4-Amino-6,7-dimethoxy-quinazolin-2-yl)-4-benzyl-piperidine-4-carboxylic acid ((R)-1-phenyl-ethyl)-amide] | 7.69
COc1cc2nc(N3CCC(Cc4ccccc4)(C(=O)NC(C)c4ccc(Cl)cc4)CC3)nc(N)c2cc1OC (stereo not drawn) [Example 25, 1-(4-Amino-6,7-dimethoxy-quinazolin-2-yl)-4-benzyl-piperidine-4-carboxylic acid [1-(4-chloro-phenyl)-ethyl]-amide] | 7.02
